Assay results as given in US20080208071A1, “Measurement of Gastric Acid Secretion” (THE LEEDS TEACHING HOSPITALS NHS TRUST, priority 2005, published 2008).

Key:
gastric acid secretion [1] = test: 13C calcium carbonate breath test, Example 2 (initial 2 g, then 500 mg every 5 minutes over 3 hours); conditions: human volunteer; oral 2 g then 500 mg calcium carbonate (10 atom % 13C) every 5 minutes over 3 hours; two experiments; FIG. 4
gastric acid secretion [2] = test: 13C calcium carbonate breath test, Example 1 (250 mg every 15 minutes over 4 hours); conditions: human volunteer; oral 250 mg calcium carbonate (10 atom % 13C) every 15 minutes over 4 hours; two experiments; FIG. 1
Method: At 10 minute intervals, samples of exhaled (expired) air were obtained from the subject by breathing into a suitable collection vessel such as a test tube. The expired air was subjected to mass spectrometry to measure the ratio of ^13C to ^12C in the exhaled carbon dioxide.
In a second experiment the subject was treated with omeprazole 20 mg daily for two weeks and the experiment repeated twice under otherwise identical conditions.
The subject then did two further experiments again under otherwise identical conditions but now including a daily dosage of 40 mg of omeprazole.

Which “time at which the rise in 13C in exhaled carbon dioxide begins to plateau” value (gastric acid secretion [1]) does the source give for O=C([O-])[O-].[Ca+2] [^13C labelled calcium carbonate, calcium carbonate] here?
Its value is “about 120 minutes”.

What about the “time at which the rise in 13C in exhaled carbon dioxide begins to plateau” value (gastric acid secretion [2]) of the same compound?
Its value is “about 120 minutes”.
